Source: PMC7801616, “Surface hydrophobics mediate functional dimerization of CYP121A1 of Mycobacterium tuberculosis” (Scientific Reports, 2021)

What was measured:
[1] = test system: CYP121A1 dimer; conditions: cited from earlier work
[2] = test system: WT CYP121A1 heme thiolate-CO complex
[3] = test system: WT CYP121A1
[4] = test system: Mtb; conditions: cited from earlier work

Clc1ccccc1C(c1ccccc1)(c1ccccc1)n1ccnc1 [clotrimazole]
effect on dimerization of the enzyme [1]: disrupts dimerization of the enzyme

Clc1ccc(COC(Cn2ccnc2)c2ccc(Cl)cc2Cl)cc1 (centres unmarked) [econazole]
effect on dimerization of the enzyme [1]: disrupts dimerization of the enzyme

O=C1N[C@@H](Cc2ccc(O)cc2)C(=O)N[C@H]1Cc1ccc(O)cc1 [cYY, cyclo-L-Tyr-L-Tyr]
change of heme thiolate-CO complex stability with bound substrate [2]: little change

CC(=O)N1CCN(c2ccc(OCC3COC(Cn4ccnc4)(c4ccc(Cl)cc4Cl)O3)cc2)CC1 (centres unmarked) [ketoconazole]
effect of ligand on thermal stability [3]: modest increase in the stability
inhibition of Mtb growth [4]: does not significantly inhibit Mtb growth
